In paper PMC11394700, “Characterization of Stealth Liposome-Based Nanoparticles Encapsulating the ACAT1/SOAT1 Inhibitor F26: Efficacy and Toxicity Studies In Vitro and in Wild-Type Mice” (International Journal of Molecular Sciences, 2024):
“And” between values parts separate entries of the source, which are not always exact repeats. Identical values can stand only once. Like-named read-outs stand apart in the source and are kept apart here. One block for each molecule: values may come before it.

Experiments:
[1] = XTT cytotoxicity assay in MEFs; type: cell-based, mouse; settings: mouse; MEFs, 150 µM, 24 h; read-out: Cell viability (XTT)
Experimental: (§1) An XTT cell proliferation assay kit (measures mitochondrial redox activity in metabolically active cells) was purchased from ATCC (Catalog No. 30-1011K, Manassas, VA, USA). Cell toxicity assessment was performed according to the manufacturer’s protocol. MEFs were seeded in a 96-well plate, 2500 cells per well, and cultured in full growth medium for 24 h. […] After the treatment, XTT reagent was added to each well, and the plates were incubated at 37 °C for 4 h. Following the incubation, absorbance was measured by using a BioTek Synergy Neo2 Hybrid Multimode Reader (BioTek, Winooski, VT, USA).

[2] = system: MEFs; assay: XTT cytotoxicity assay in MEFs; type: cell-based, mouse; settings: for Effect on cell viability (XTT): MEFs, concentrations below 50 µM, 24 h
Experimental: as §1

[3] = system: rat liver microsomal ACAT; set-up: method as in earlier work; settings: F26 = compound 3 in ref; cited from earlier work
[4] = Plasma and brain pharmacokinetics after single IV dose (LC-MS/MS); type: in vivo, mouse; settings: WT mice
Experimental: After intravenous administration of F26, mice were perfused with PBS at scheduled time points. Plasma and brain tissue were collected, flash-frozen in liquid nitrogen, and stored at −80 °C until analysis. […] Calibrator and quality control (QC) samples were prepared in the appropriate C57BL/6 mouse matrix: pooled plasma (anticoagulant: K3-EDTA, Innovative Research) and brain homogenate. The brain tissues were homogenized at 0.1 g/mL in deionized water using stainless-steel beads and a Next Advance Bullet Blender. Samples were cleaned up and analytes were extracted using protein precipitation followed by nitrogen dry down and reconstitution. […] Samples were vortex-mixed for 5 min then centrifuged for 10 min at 21,130× g and a total of 200 µL of clear supernatant was transferred to new tubes and dried under nitrogen in a water bath at 45 °C. The dried residues were reconstituted in 80:20 methanol:water (plasma: 400 µL, brain: 200 µL), vortex-mixed for 15 s and centrifuged at 21,130× g for 5 min. Finally, 100 µL of supernatant was transferred to amber autosampler vials, and 2 µL was injected into the LC-MS/MS system. For the quantitative analysis, each sample was prepared in triplicate and each replicate was injected onto the LC-MS/MS system three times. Liquid chromatography was performed on a Thermo Scientific Vanquish Flex UHPLC system using buffers A = 0.1% formic acid in water and B = 0.1% formic acid in methanol. A Thermo Scientific Accucore C18 50 × 2.1 mm 2.6 µm column fitted with a 10 × 2.1 mm 2.6 µm C18 guard cartridge maintained at 40 °C was used. […] A Thermo Scientific TSQ Quantis triple quadrupole mass spectrometer was operated in positive ion mode with a collision pressure of 1.5 mTorr for quantification. […] The heated electrospray ionization (H-ESI) source was operated with a spray voltage of 3500 V, vaporizer temperature 400 °C, ion transfer tube temperature 300 °C, sheath gas 23, aux gas 12 and ion sweep gas 0.5 (gases are arbitrary units). The quantitative range for F26 was 0.5–500 ng/mL for plasma samples and 0.3–200 ng/mL for brain samples. QC samples were prepared at 1.5, 150, and 400 ng/mL for plasma and at 0.9, 80, and 150 ng/mL for brain.

[5] = biological target: T1, ACAT1 (Mus musculus, UniProt Q61263); assay: ACAT activity by [3H] oleate pulse assay in MEFs; type: cell-based
T1 construct: MEFs predominantly express ACAT1, not ACAT2; endogenous in cells; host or cells: mouse embryonic fibroblasts (MEFs)
T1 sequence (Q61263 1-540): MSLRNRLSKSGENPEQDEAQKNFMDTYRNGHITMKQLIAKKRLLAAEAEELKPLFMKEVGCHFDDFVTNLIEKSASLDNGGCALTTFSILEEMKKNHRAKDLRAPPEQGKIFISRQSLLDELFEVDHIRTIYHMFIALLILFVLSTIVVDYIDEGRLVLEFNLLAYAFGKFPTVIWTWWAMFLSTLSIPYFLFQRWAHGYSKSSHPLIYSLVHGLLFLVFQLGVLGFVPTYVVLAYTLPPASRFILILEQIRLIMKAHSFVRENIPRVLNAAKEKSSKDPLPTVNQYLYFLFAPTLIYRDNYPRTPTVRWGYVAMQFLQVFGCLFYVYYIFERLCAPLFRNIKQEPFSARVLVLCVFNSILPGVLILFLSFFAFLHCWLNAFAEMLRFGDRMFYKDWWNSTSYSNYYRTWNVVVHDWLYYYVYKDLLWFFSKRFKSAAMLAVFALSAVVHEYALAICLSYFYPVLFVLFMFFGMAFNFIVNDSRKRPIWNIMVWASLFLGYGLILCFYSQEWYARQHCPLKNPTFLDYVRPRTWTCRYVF
Experimental: The [^3H] oleate pulse assay was performed as described [76, 77]. […] For the washout assay, cells were washed and incubated with a conditioned drug-free medium for a given amount of time. After the incubation, cells were pulsed with 10 µL of 10 mM [^3H] oleate/BSA (containing 4 µCi) for 2 h in a 37 °C water bath with 5% CO2. At the end of the pulse period, cells were placed on ice, washed three times with cold PBS, and lysed with 0.2 M NaOH. Lysates were aliquoted first for protein measurement and the remaining extract was neutralized to pH 7.0 by adding 3 M HCl and 1 M KH2PO4 at pH 7. Lipids were then extracted with chloroform:methanol (2:1) and water. Samples were vortex-mixed and centrifuged at 500 rpm for 10 min. The top phase was removed, and the bottom phase was blow-dried by nitrogen gas. Dried samples were dissolved in ethyl acetate and spotted on a thin-layer chromatography (TLC) plate (Miles Scientific Silica gel HL, Catalog No. P46911). The solvent system used was petroleum ether:ethyl ether:acetic acid (90:10:1). The cholesteryl ester band with an Rf value at 0.9 was visualized by iodine staining, scraped from the plate, and measured with a scintillation counter.

[6] = system: human ACAT2; settings: cited from earlier work
[7] = WT mice, individual samples, cited from earlier work
[8] = system: primary mouse neuronal cells; settings: concentrations up to 10 µM; cited from earlier work
[9] = 4 h after single IV NP F26 51 mg/kg, individual samples, 51 mg/kg
[10] = 12 h after single IV NP F26 51 mg/kg, individual samples, 51 mg/kg
[11] = 24 h after single IV NP F26 51 mg/kg, individual samples, 51 mg/kg
[12] = 48 h after single IV NP F26 51 mg/kg, individual samples, 51 mg/kg
[13] = 4 h after single IV NP F12511 46 mg/kg
[14] = 12 h after single IV NP F12511 46 mg/kg
[15] = 24 h after single IV NP F12511 46 mg/kg

- Brain Concentration [4, 9]: 1148 ng/g
- Brain-to-Plasma Ratio [4, 9]: 0.069
- Plasma Concentration [4, 9]: 16,540 ng/mL
- Brain Concentration [4, 10]: 529 ng/g
- Brain-to-Plasma Ratio [4, 10]: 0.125
- Plasma Concentration [4, 10]: 4243 ng/mL
- Brain Concentration [4, 11]: 347 ng/g
- Brain-to-Plasma Ratio [4, 11]: 0.283
- Plasma Concentration [4, 11]: 3218 ng/mL and 1226 ng/mL
- Brain Concentration [4, 12]: 86 ng/g
- Brain-to-Plasma Ratio [4, 12]: 1.377
- Plasma Concentration [4, 12]: 62 ng/mL
- concentration at 4 h ([4]; C57BL/6, mouse, brain, iv, 51 mg/kg, 4 h after single IV NP F26 51 mg/kg, individual samples, read-out: Brain Concentration): 1120 ng/g
- Kp at 4 h ([4]; C57BL/6, mouse, brain, iv, 51 mg/kg, 4 h after single IV NP F26 51 mg/kg, individual samples, read-out: Brain-to-Plasma Ratio): 0.061
- concentration at 12 h ([4]; C57BL/6, mouse, brain, iv, 51 mg/kg, 12 h after single IV NP F26 51 mg/kg, individual samples, read-out: Brain Concentration): 671 ng/g
- Kp at 12 h ([4]; C57BL/6, mouse, brain, iv, 51 mg/kg, 12 h after single IV NP F26 51 mg/kg, individual samples, read-out: Brain-to-Plasma Ratio): 0.147
- concentration at 24 h ([4]; C57BL/6, mouse, brain, iv, 51 mg/kg, 24 h after single IV NP F26 51 mg/kg, individual samples): 571 ng/g
- Kp at 24 h ([4]; C57BL/6, mouse, brain, iv, 51 mg/kg, 24 h after single IV NP F26 51 mg/kg, individual samples, read-out: Brain-to-Plasma Ratio): 0.178
- concentration at 48 h ([4]; C57BL/6, mouse, brain, iv, 51 mg/kg, 48 h after single IV NP F26 51 mg/kg, individual samples, read-out: Brain Concentration): 59 ng/g
- Kp at 48 h ([4]; C57BL/6, mouse, brain, iv, 51 mg/kg, 48 h after single IV NP F26 51 mg/kg, individual samples, read-out: Brain-to-Plasma Ratio): 1.6
- Cmax ([4]; C57BL/6, mouse, brain, single IV NP F26 51 mg/kg, read-out: Cmax in brain): 1130 ng/g
- half-life ([4]; C57BL/6, mouse, brain, single IV NP F26 51 mg/kg, read-out: T1/2 in brain (converted)): 10.5 h
- Tmax ([4]; C57BL/6, mouse, brain, single IV NP F26 51 mg/kg, read-out: Tmax in brain): 4 h
- concentration at 4 h ([4]; C57BL/6, mouse, plasma, iv, 51 mg/kg, 4 h after single IV NP F26 51 mg/kg, individual samples, read-out: Plasma Concentration): 18500 ng/mL
- concentration at 12 h ([4]; C57BL/6, mouse, plasma, iv, 51 mg/kg, 12 h after single IV NP F26 51 mg/kg, individual samples, read-out: Plasma Concentration): 4570 ng/mL
- concentration at 48 h ([4]; C57BL/6, mouse, plasma, iv, 51 mg/kg, 48 h after single IV NP F26 51 mg/kg, individual samples, read-out: Plasma Concentration): 37 ng/mL
- Tmax ([4]; C57BL/6, mouse, plasma, single IV NP F26 51 mg/kg, non-compartmental, n = 2, read-out: Tmax in plasma): 4 h
- AUC(0-t) ([4]; C57BL/6, mouse, plasma, single IV NP F26 51 mg/kg, read-out: AUClast in plasma): 229 µg·h/mL
- Cmax ([4]; C57BL/6, mouse, plasma, single IV NP F26 51 mg/kg, read-out: Cmax in plasma): 17500 ng/mL
- half-life ([4]; C57BL/6, mouse, plasma, single IV NP F26 51 mg/kg, read-out: T1/2 in plasma (converted)): 4.75 h
- AUClast in brain ([4]; single IV NP F26 51 mg/kg): 23,398.14 ng.h/g
- IC50 ([5]; [3H] oleate pulse assay, MEFs (predominantly ACAT1), read-out: IC50 against ACAT in MEFs): 3 nM
- Potency as ACAT1 inhibitor compared to F12511 (fold) ([5]; from IC50 values in MEFs): close to seven-fold
SMILES: CCCCCCCCCCCCS(=O)(=O)[C@](F)(C(=O)Nc1cc(C)c(O)c(C)c1C)c1ccccc1 [F26]
- viability at 24 h, 150 µM [1]: 81%
- Concentration required to induce cell toxicity relative to that for ACAT1 inhibition ([2]; 50 µM or higher vs IC50 in MEFs): over 1000 times
- Effect on cell viability (XTT) [2]: neither F12511 nor F26 affected cell viability
- Potency for inhibiting rat liver microsomal ACAT [3]: more potent than F12511

SMILES: CCCCCCCCCCCCS[C@H](C(=O)Nc1cc(C)c(O)c(C)c1C)c1ccccc1 [F12511, eflucimibe]
- Effect on cell viability (XTT) [2]: neither F12511 nor F26 affected cell viability
- IC50 [6]: 110 nM
- Brain Concentration [7, 13]: 56 ng/g and 83 ng/g and 98 ng/g and 95 ng/g
- Plasma Concentration [7, 13]: 11,185 ng/mL and 13,184 ng/mL and 12,883 ng/mL and 31,224 ng/mL
- Brain Concentration [7, 14]: 25 ng/g and 26 ng/g
- Plasma Concentration [7, 14]: 345 ng/mL and 487 ng/mL
- Brain Concentration [7, 15]: 7 ng/g and 9 ng/g
- Plasma Concentration [7, 15]: 101 ng/mL and 21 ng/mL
- Toxicity in primary mouse neuronal cells [8]: no detectable toxicity
